Measurements as given in the supplement of paper PMC10307832.

What was measured:
Assay in all cases: relative viability (nuclei count vs DMSO), 5 days (fraction); higher = more cells survive
[1] = test system: SK-LU-1
How it was run: (§1)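 Relative viability is defined as nuclei in treated wells over nuclei in vehicle wells. Duplicate plates were run and medians reported. Lung cancer cell lines in 1536-well plates were dosed by pin tool one day after seeding, with one drug or with a fixed anchor-drug dose plus five library-drug doses (not always all listed) in √10 steps, and nuclei were counted after 5 days.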

[2] = test system: NCI-H2405
How it was run: as §1

[3] = test system: LK-2
How it was run: as §1

[4] = test system: HCC-827
How it was run: as §1

[5] = test system: H3255
How it was run: as §1

[6] = test system: LCLC-97TM1
How it was run: as §1

[7] = test system: NCI-H522
How it was run: as §1

[8] = test system: NCI-H1993
How it was run: as §1

[9] = test system: NCI-H2170
How it was run: as §1

[10] = test system: NCI-H1650
How it was run: as §1

[11] = test system: EPLC-272H
How it was run: as §1

[12] = test system: HOP-62
How it was run: as §1

[13] = test system: SW 1573
How it was run: as §1

[14] = test system: NCI-H3122
How it was run: as §1

[15] = test system: NCI-H441
How it was run: as §1

[16] = test system: PC-3 [JPC-3]
How it was run: as §1

[17] = test system: ChaGo-K-1
How it was run: as §1

[18] = test system: LU99A
How it was run: as §1

[19] = test system: NCI-H1355
How it was run: as §1

[20] = test system: EKVX
How it was run: as §1

[21] = test system: LXF-289
How it was run: as §1

[22] = test system: UMC-11
How it was run: as §1

## Cc1cn(-c2cc(NC(=O)c3ccc(C)c(Nc4nccc(-c5cccnc5)n4)c3)cc(C(F)(F)F)c2)cn1 [Nilotinib] + Nc1ncn([C@H]2C[C@H](O)[C@@H](CO)O2)c(=O)n1 [Decitabine] (partner 2 µM)
[1]; first compound 0.001 µM
  relative viability: 0.532
[1]; first compound 0.003162 µM
  relative viability: 0.627
[1]; first compound 0.01 µM
  relative viability: 0.699
[1]; first compound 0.03162 µM
  relative viability: 0.424
[1]; first compound 0.1 µM
  relative viability: 0.532
[2]; first compound 0.001 µM
  relative viability: 0.724
[2]; first compound 0.003162 µM
  relative viability: 0.815
[2]; first compound 0.01 µM
  relative viability: 0.798
[2]; first compound 0.03162 µM
  relative viability: 0.65
[2]; first compound 0.1 µM
  relative viability: 0.509
[3]; first compound 0.001 µM
  relative viability: 0.327
[3]; first compound 0.003162 µM
  relative viability: 0.338
[3]; first compound 0.01 µM
  relative viability: 0.252
[3]; first compound 0.03162 µM
  relative viability: 0.236
[3]; first compound 0.1 µM
  relative viability: 0.26
[4]; first compound 0.001 µM
  relative viability: 0.303
[4]; first compound 0.003162 µM
  relative viability: 0.41
[4]; first compound 0.03162 µM
  relative viability: 0.296
[4]; first compound 0.1 µM
  relative viability: 0.328
[5]; first compound 0.001 µM
  relative viability: 0.549
[5]; first compound 0.003162 µM
  relative viability: 0.659
[5]; first compound 0.03162 µM
  relative viability: 0.667
[5]; first compound 0.1 µM
  relative viability: 0.692
[6]; first compound 0.001 µM
  relative viability: 0.201
[6]; first compound 0.003162 µM
  relative viability: 0.283
[6]; first compound 0.01 µM
  relative viability: 0.279
[6]; first compound 0.03162 µM
  relative viability: 0.321
[7]; first compound 0.01 µM
  relative viability: 0.667
[7]; first compound 0.03162 µM
  relative viability: 0.699
[7]; first compound 0.1 µM
  relative viability: 0.539
[8]; first compound 0.001 µM
  relative viability: 0.496
[8]; first compound 0.003162 µM
  relative viability: 0.694
[8]; first compound 0.01 µM
  relative viability: 0.658
[8]; first compound 0.03162 µM
  relative viability: 0.517
[8]; first compound 0.1 µM
  relative viability: 0.62
[9]; first compound 0.001 µM
  relative viability: 0.488
[9]; first compound 0.003162 µM
  relative viability: 0.553
[9]; first compound 0.01 µM
  relative viability: 0.539
[9]; first compound 0.03162 µM
  relative viability: 0.56
[9]; first compound 0.1 µM
  relative viability: 0.649
[10]; first compound 0.001 µM
  relative viability: 0.462
[10]; first compound 0.003162 µM
  relative viability: 0.621
[10]; first compound 0.01 µM
  relative viability: 0.579
[10]; first compound 0.03162 µM
  relative viability: 0.588
[10]; first compound 0.1 µM
  relative viability: 0.757
[11]; first compound 0.001 µM
  relative viability: 0.294
[11]; first compound 0.003162 µM
  relative viability: 0.368
[11]; first compound 0.01 µM
  relative viability: 0.436
[11]; first compound 0.03162 µM
  relative viability: 0.341
[11]; first compound 0.1 µM
  relative viability: 0.338
[12]; first compound 0.003162 µM
  relative viability: 0.276
[12]; first compound 0.03162 µM
  relative viability: 0.464
[13]; first compound 0.001 µM
  relative viability: 0.455
[13]; first compound 0.003162 µM
  relative viability: 0.622
[13]; first compound 0.01 µM
  relative viability: 0.924
[13]; first compound 0.03162 µM
  relative viability: 0.533
[13]; first compound 0.1 µM
  relative viability: 0.297
[14]; first compound 0.001 µM
  relative viability: 0.504
[14]; first compound 0.003162 µM
  relative viability: 0.468
[14]; first compound 0.01 µM
  relative viability: 0.505
[14]; first compound 0.03162 µM
  relative viability: 0.471
[14]; first compound 0.1 µM
  relative viability: 0.314
[15]; first compound 0.001 µM
  relative viability: 0.295
[15]; first compound 0.003162 µM
  relative viability: 0.304
[15]; first compound 0.01 µM
  relative viability: 0.284
[15]; first compound 0.03162 µM
  relative viability: 0.367
[15]; first compound 0.1 µM
  relative viability: 0.365
[16]; first compound 0.001 µM
  relative viability: 0.873
[16]; first compound 0.01 µM
  relative viability: 1
[16]; first compound 0.03162 µM
  relative viability: 0.897
[16]; first compound 0.1 µM
  relative viability: 1.01
[17]; first compound 0.001 µM
  relative viability: 0.528
[17]; first compound 0.003162 µM
  relative viability: 0.584
[17]; first compound 0.01 µM
  relative viability: 0.585
[17]; first compound 0.03162 µM
  relative viability: 0.519
[17]; first compound 0.1 µM
  relative viability: 0.577
[18]; first compound 0.001 µM
  relative viability: 0.909
[18]; first compound 0.003162 µM
  relative viability: 1.11
[18]; first compound 0.01 µM
  relative viability: 0.905
[18]; first compound 0.03162 µM
  relative viability: 0.999
[18]; first compound 0.1 µM
  relative viability: 0.436
[19]; first compound 0.001 µM
  relative viability: 0.355
[19]; first compound 0.003162 µM
  relative viability: 0.381
[19]; first compound 0.01 µM
  relative viability: 0.382
[19]; first compound 0.03162 µM
  relative viability: 0.408
[19]; first compound 0.1 µM
  relative viability: 0.418
[20]; first compound 0.001 µM
  relative viability: 0.307
[20]; first compound 0.003162 µM
  relative viability: 0.413
[20]; first compound 0.01 µM
  relative viability: 0.394
[20]; first compound 0.03162 µM
  relative viability: 0.305
[20]; first compound 0.1 µM
  relative viability: 0.648
[21]; first compound 0.001 µM
  relative viability: 0.363
[21]; first compound 0.003162 µM
  relative viability: 0.447
[21]; first compound 0.01 µM
  relative viability: 0.391
[21]; first compound 0.03162 µM
  relative viability: 0.551
[21]; first compound 0.1 µM
  relative viability: 0.61
[22]; first compound 0.001 µM
  relative viability: 0.607
[22]; first compound 0.003162 µM
  relative viability: 0.591
[22]; first compound 0.01 µM
  relative viability: 0.566
[22]; first compound 0.03162 µM
  relative viability: 0.551
[22]; first compound 0.1 µM
  relative viability: 0.622
